Experimental data taken from article PMC4503980 (Scientific Reports, 2015).

What was measured:
extended nNOS-PDZ = target: T1, extended nNOS-PDZ (Mus musculus, UniProt Q9Z0J4); experiment: ITC titration into extended nNOS-PDZ; assay type: binding; details: 100 μM protein in cell, 750 μM compound in syringe, 1% DMSO, pH 6.3, 25 °C
T1 construct: nNOS-PDZ (residues 12–134, Uniprot Q9JJ30); made in house
Excerpt: (§1) Unlike the FP experiments above, which rely on inhibition of interaction partners, the ITC method is a direct measure of binding, regardless of where it takes place on the protein.
(§2) Figure 5 ITC curves. Plots showing titrations into PDZ domains fitted to a one-site model.
For isothermal titration calorimetry (ITC) and NMR, PSD-95-PDZ2 (157–249, human) was expressed and purified as described previously. The sequence for the extended Mus musculus nNOS-PDZ (residues 12–134, Uniprot Q9JJ30) was sub-cloned into a pETM11 vector using cloning sites Nco1 and Kpn1, and the protein was expressed and purified following a similar protocol to that used for the production of PSD-95-PDZ2.
(§3) All ITC experiments were carried out at 25 °C on an iTC200 Microcalorimeter (GE Healthcare) with a 200 μL cell capacity and 40 μL syringe volume. The buffer used for all solutions was 20 mM phosphate buffer at pH 6.3; each experiment consisted of an initial injection of 0.5 μL, followed by fifteen 2.39 μL injections before a final injection of 1.89 μL. […] In both cases no heat exchange was detected, confirming that there was appropriate match of buffer conditions with no indication of dilution effects. […] For the nNOS-PDZ/PSD-95-PDZ2 interaction, 100 μM PDZ2 in the cell was titrated with 750 μM nNOS-PDZ. […] All data was analysed using the Origin®7 software programme.

[1] = target: T2, nNOS-PDZ/PSD-95-PDZ2 interaction (Mus musculus, UniProt Q9Z0J4); experiment: ITC of nNOS-PDZ/PSD-95-PDZ2 interaction in the presence of compound; assay type: binding; details: 1 mM IC87201 present; significant interference, reduced reliability
T2 construct: nNOS-PDZ (residues 12–134, Uniprot Q9JJ30); PSD-95-PDZ2 (157–249, human); made in house
T2 sequence (Q9Z0J4 12-134): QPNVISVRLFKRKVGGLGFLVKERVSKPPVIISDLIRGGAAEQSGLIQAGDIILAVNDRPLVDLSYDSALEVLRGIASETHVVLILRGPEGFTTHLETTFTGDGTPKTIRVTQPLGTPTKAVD
Procedure: as §1, §2, §3

nNOS/PSD-95 interaction [2] = tested on: nNOS/PSD-95 interaction; set-up: method as in PMID 19732061; details: cited from earlier work
PSD-95/cypin-interaction = tested on: PSD-95/cypin-interaction; set-up: method as in PMID 19732061; details: cited from earlier work
[3] = tested on: 34 targets in a panel of receptors, ion channels, and transporters; set-up: method as in PMID 19732061; details: cited from earlier work
[4] = tested on: NMDA-induced 3′,5′-cyclic guanosine monophosphate (cGMP) production; set-up: method as in PMID 19732061; details: hippocampal cultures; cited from earlier work
two mice pain models = tested on: two mice pain models; set-up: method as in PMID 19732061; details: cited from earlier work
nNOS/PSD-95 interaction [5] = tested on: nNOS/PSD-95 interaction; set-up: method as in PMID 21102461; details: extracts from glutamate- or ischemia-induced cultured neurons and cortical brain; cited from earlier work
nNOS/CAPON = tested on: nNOS/CAPON; set-up: method as in PMID 21102461; details: cited from earlier work
PSD-95/SynGAP = tested on: PSD-95/SynGAP; set-up: method as in PMID 21102461; details: cited from earlier work
PSD-95/GluN2B = tested on: PSD-95/GluN2B; set-up: method as in PMID 21102461; details: cited from earlier work
NMDA receptor = tested on: NMDA receptor; set-up: method as in PMID 21102461; details: cited from earlier work
nNOS [6] = tested on: nNOS; set-up: method as in PMID 21102461; details: cited from earlier work
nNOS [7] = tested on: nNOS; set-up: method as in PMID 21102461; details: cited from earlier work; remark: listed apart in the source
[8] = tested on: NMDA receptor-mediated NO synthesis; set-up: method as in PMID 21102461; details: cited from earlier work
neurons = tested on: neurons; set-up: method as in PMID 21102461; details: cited from earlier work
[9] = tested on: animal ischemic stroke models; set-up: method as in PMID 21102461; details: not when the nNOS gene was knocked out; cited from earlier work

T1 sequence (Q9Z0J4 12-134): as above

| Structure (SMILES) | binding to extended nNOS-PDZ by ITC (extended nNOS-PDZ) | effect on affinity between nNOS-PDZ and PSD-95-PDZ2 (ITC) [1] | disruption of nNOS/PSD-95 interaction in vitro (nNOS/PSD-95 interaction [2]) | effect on PSD-95/cypin-interaction (PSD-95/cypin-interaction) | effect on 34 targets in a panel of receptors, ion channels, and transporters [3] | NMDA-induced cGMP production [4] | analgesic properties (two mice pain models) | inhibition of nNOS/PSD-95 interaction (co-immunoprecipitation) (nNOS/PSD-95 interaction [5]) | inhibition of nNOS/CAPON (nNOS/CAPON) | inhibition of PSD-95/SynGAP (PSD-95/SynGAP) | inhibition of PSD-95/GluN2B (PSD-95/GluN2B) | effect on NMDA receptor function (ion flux) (NMDA receptor) | effect on nNOS expression (nNOS [6]) | effect on nNOS catalytic activity (nNOS [7]) | NMDA receptor-mediated NO synthesis [8] | neuroprotective properties in neurons (neurons) | neuroprotective properties in animal ischemic stroke models [9] |
| --- | --- | --- | --- | --- | --- | --- | --- | --- | --- | --- | --- | --- | --- | --- | --- | --- | --- |
| Oc1c(Cl)cc(Cl)cc1CNc1ccc2[nH]nnc2c1 [IC87201, 2-((1H-Benzo[d][1–3]triazol-5-ylamino)methyl)-4-6-dichlorophenol] | does not bind | appeared to be affected | disrupt | did not affect | did not affect | blocked | analgesic properties | – | – | – | – | – | – | – | – | – | – |
| O=C(O)c1ccc(NCc2cc(Cl)cc(Cl)c2O)cc1O [ZL006, 4-((3,5-Dichloro-2-hydroxybenzyl)amino)-2-hydroxybenzoic acid] | binding was too weak to produce a binding isotherm | – | – | – | – | – | – | inhibit | not inhibited | not inhibited | not inhibited | did not affect | did not affect | did not affect | inhibited | robust neuroprotective properties | robust neuroprotective properties |
